One assay concerns the target BTK (Homo sapiens (Human), UniProt Q06187). Put plainly: Z'-LYTE kinase inhibition assay against BTK. It counts as biochemical. Particulars: for inhibition at 0.1 µM: compound at 100 nM, ATP concentration at Km; for IC50: series of concentrations, GraphPad Prism 5. In a few lines: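 Compounds were titrated over 10 points (3-fold steps, 1% DMSO) against BTK (1.04-10.4 ng) using Tyr 01 substrate at 2 μM and ATP at Km, pH 7.5 HEPES buffer with MgCl2 and EGTA. After one hour each of reaction and development at room temperature, fluorescence gave percent inhibition and IC50.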

The next assay has as its system OCI-Ly10 cells. The experiment in a line: OCI-Ly10 cell proliferation assay (Alamar Blue, 72 hours). It counts as cell-based. Particulars: Homo sapiens. As for the experimental part: OCI-Ly10 cells were cultured in Iscove's DMEM supplemented with 20% fetal bovine serum and 1× penicillin/streptomycin/glutamine. The cells were maintained in T175 flasks under 5% CO2 in a 37 ° C. humidified incubator for 5 days prior to plating and assay.
Cells were pooled by centrifugation (200 ref, 8 minutes) and resuspended in fresh medium to a concentration of 2.00E+05 cells/ml. 200 µl of the cell suspension was added to each well (40,000 cells/well) of a black-walled 96 well plate to which 1 μl of compound (n=3 per concentration) in 100% DMSO (0.5% final concentration) was added per well. Vehicle and cell free wells were also included in the assay. The dosed cells were cultured under normal conditions for 72 hours.
Cell proliferation is measured using the dye Alamar Blue (resazurin). Resazurin is reduced to resorufin by cellular enzymes and is fluorescent (544 nm excitation, 612 nm emission). Fluorescence intensity is proportional to cell number. Resazurin was prepared in PBS to a stock concentration of 440 μM. 40 μl of the 440 μM resazurin stock solution was added 3 hours prior to the 72 hour termination of the assay. The plate was returned to normal culture conditions and fluorescence measurements were collected using a Cytation3 multimode plate reader (Biotek) at 72 hours.
The scale utilized in Table 8 is as follows: ++ less than 50 nM and + greater than 50 nM.
For orientation: The colour change of resazurin is a common sign of viable cells or microbes.

Chain of BTK (Q06187 whole entry): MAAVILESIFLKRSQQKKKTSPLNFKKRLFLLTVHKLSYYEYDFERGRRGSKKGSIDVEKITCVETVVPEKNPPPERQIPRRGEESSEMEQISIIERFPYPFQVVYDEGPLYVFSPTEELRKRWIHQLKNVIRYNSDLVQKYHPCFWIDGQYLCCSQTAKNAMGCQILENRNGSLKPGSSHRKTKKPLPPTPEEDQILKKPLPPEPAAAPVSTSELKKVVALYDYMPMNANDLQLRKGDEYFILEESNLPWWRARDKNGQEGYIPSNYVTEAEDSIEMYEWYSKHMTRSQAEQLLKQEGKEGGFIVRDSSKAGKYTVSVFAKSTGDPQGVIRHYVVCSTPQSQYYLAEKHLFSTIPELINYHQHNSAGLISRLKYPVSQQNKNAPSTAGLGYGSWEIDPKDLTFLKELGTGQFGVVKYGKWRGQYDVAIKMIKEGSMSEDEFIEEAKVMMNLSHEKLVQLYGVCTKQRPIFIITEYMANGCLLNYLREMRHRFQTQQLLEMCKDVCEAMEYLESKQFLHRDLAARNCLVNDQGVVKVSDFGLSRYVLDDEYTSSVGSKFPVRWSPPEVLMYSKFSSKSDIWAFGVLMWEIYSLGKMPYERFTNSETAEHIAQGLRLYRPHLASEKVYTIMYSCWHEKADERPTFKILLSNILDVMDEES

For orientation: inhibition means the percentage by which the read-out fell short of the control. Read a low inhibition as a weak effect. The term IC50 denotes the point on the concentration scale where inhibition reaches its midpoint. With `C=CC(=O)Nc1cccc(-c2cc(-c3ccc(C(=O)Nc4cc(C5CC5)ccn4)cc3)cc3cncnc23)c1` [C131, 4-(8-(3-acrylamidophenyl)quinazolin-6-yl)-N-(4-cyclopropylpyridin-2-yl)benzamide], the inhibition at 0.1 µM against BTK is > 50%. The concentration for half-maximal inhibition (IC50) against BTK was < 100 nM; in the assay on OCI-Ly10 cells, < 50 nM.

Take `C=CC(=O)Nc1cccc(-c2cc(-c3ccc(Oc4ccccn4)c(F)c3)cc3cncnc23)c1` [C135, N-(3-(6-(3-fluoro-4-(pyridin-2-yloxy)phenyl)quinazolin-8-yl)phenyl)acrylamide]: at BTK, the inhibition at 0.1 µM is > 50% and the IC50 is < 100 nM. In the assay on OCI-Ly10 cells, the IC50 was < 50 nM.

Consider `C=CC(=O)Nc1cccc(-c2cc(-c3ccc(Oc4ccccn4)cc3OC)cc3cncnc23)c1` [C121, N-(3-(6-(2-methoxy-4-(pyridin-2-yloxy)phenyl)quinazolin-8-yl)phenyl)acrylamide], for which, on BTK, the inhibition at 0.1 µM is > 50% and the IC50 was < 100 nM. Also, in the assay on OCI-Ly10 cells, the IC50 is > 50 nM.

As for `C=CC(=O)Nc1cccc(-c2cc(-c3ccc(C(=O)Nc4ccccn4)c(Cl)c3)cc3cncnc23)c1` [C163, 4-(8-(3-acrylamidophenyl)quinazolin-6-yl)-2-chloro-N-(pyridin-2-yl)benzamide], on BTK, the inhibition at 0.1 µM is > 50% and the IC50 was < 100 nM. In addition, in the assay on OCI-Ly10 cells, the concentration for half-maximal inhibition (IC50) was > 50 nM.

Take `C=CC(=O)Nc1cccc(-c2cc(-c3ccc(C(=O)Nc4cc(C5CC5)ccn4)c(F)c3)cc3cncnc23)c1` [C139, 4-(8-(3-acrylamidophenyl)quinazolin-6-yl)-N-(4-cyclopropylpyridin-2-yl)-2-fluorobenzamide]: the inhibition at 0.1 µM at BTK is > 50%. In addition, the concentration for half-maximal inhibition (IC50) against BTK is < 100 nM; in the assay with OCI-Ly10 cells it was < 50 nM.

For the molecule `C=CC(=O)N1CCC(c2nc(-c3ccc(C(=O)Nc4ccccn4)c(F)c3)n3c(N)nccc23)C1` (centres unmarked) [C230, 4-(1-(1-acryloylpyrrolidin-3-yl)-5-amino-imidazo[1,5-c]pyrimidin-3-yl)-2-fluoro-N-(pyridin-2-yl)benzamide], the IC50 against BTK is < 100 nM; in the assay with OCI-Ly10 cells, < 50 nM.

With `CC#CC(=O)N1CCC(c2nc(-c3ccc(C(=O)Nc4ccccn4)cc3)n3c(N)nccc23)C1` (centres unmarked) [C204, 4-(5-amino-1-(1-(but-2-ynoyl)pyrrolidin-3-yl)imidazo[1,5-c]pyrimidin-3-yl)-N-(pyridin-2-yl)benzamide], on BTK, the inhibition at 0.1 µM was > 50% and the IC50 was < 100 nM. Also, the IC50 with OCI-Ly10 cells was < 50 nM.

Consider `C=CC(=O)Nc1cccc(-c2cc(-c3ccc(Oc4ccccn4)cc3F)cc3cncnc23)c1` [C112, N-(3-(6-(2-fluoro-4-(pyridin-2-yloxy)phenyl)quinazolin-8-yl)phenyl)acrylamide], for which the inhibition at 0.1 µM on BTK is > 50%. In addition, the IC50 on BTK was < 100 nM; in the assay on OCI-Ly10 cells it was < 50 nM.

As to `C=CC(=O)Nc1cccc(-c2cc(-c3ccc(C(=O)Nc4cc(C5CC5)ccn4)cc3Cl)cc3cncnc23)c1` [C120, 4-(8-(3-acrylamidophenyl)quinazolin-6-yl)-3-chloro-N-(4-cyclopropylpyridin-2-yl)benzamide], on BTK, the inhibition at 0.1 µM is > 50% and the IC50 is < 100 nM. Also, the IC50 in the assay with OCI-Ly10 cells is < 50 nM.

Consider `C=CC(=O)N1CCC(c2nc(-c3ccc(C(=O)Nc4cc(OC)ccn4)cc3)n3c(N)nccc23)C1` (centres unmarked) [C240, 4-(1-(1-acryloylpyrrolidin-3-yl)-5-amino-imidazo[1,5-c]pyrimidin-3-yl)-N-(4-methoxypyridin-2-yl)benzamide], for which the IC50 was < 100 nM at BTK and < 50 nM in the assay on OCI-Ly10 cells.

On to `CC#CC(=O)N1CCCC(c2nc(-c3ccc(C(=O)Nc4ccccn4)cc3)n3c(N)nccc23)C1` (centres unmarked) [C236, 4-(5-amino-1-(1-(but-2-ynoyl)piperidin-3-yl)imidazo[1,5-c]pyrimidin-3-yl)-N-(pyridin-2-yl)benzamide], for which the IC50 is < 100 nM at BTK and < 50 nM in the assay on OCI-Ly10 cells.

As to `C=CC(=O)N1CCC(c2nc(-c3ccc(C(=O)Nc4ccccn4)cc3)n3c(N)nccc23)C1` (centres unmarked) [C185, 4-(1-(1-acryloylpyrrolidin-3-yl)-5-amino-imidazo[1,5-c]pyrimidin-3-yl)-N-(pyridin-2-yl)benzamide], at BTK, the inhibition at 0.1 µM is > 50% and the IC50 is < 100 nM. Further, the IC50 in the assay on OCI-Ly10 cells is < 50 nM.

In the case of `C=CC(=O)N1CCCC(c2nc(-c3ccc(C(=O)Nc4ccccn4)cc3)n3c(N)nccc23)C1` (centres unmarked) [C235, 4-(1-(1-acryloylpiperidin-3-yl)-5-amino-imidazo[1,5-c]pyrimidin-3-yl)-N-(pyridin-2-yl)benzamide], the IC50 against BTK is < 100 nM; in the assay on OCI-Ly10 cells, < 50 nM.

Take `C=CC(=O)Nc1cccc(-c2cc(-c3ccc(C(=O)N4CCCC4)cc3)cc3cncnc23)c1` [C102, N-(3-(6-(4-(pyrrolidine-1-carbonyl)phenyl)quinazolin-8-yl)phenyl)acrylamide]: at BTK, the inhibition at 0.1 µM was > 50% and the IC50 is < 100 nM. Also, the 50% inhibitory concentration (IC50) with OCI-Ly10 cells was > 50 nM.

In the case of `C=CC(=O)Nc1cccc(-c2cc(-c3ccc(Oc4cc(C#N)ccn4)cc3)cc3cncnc23)c1` [C184, N-(3-(6-(4-((4-cyanopyridin-2-yl)oxy)phenyl)quinazolin-8-yl)phenyl)acrylamide], the inhibition at 0.1 µM at BTK was > 50%. Besides, the IC50 was < 100 nM against BTK and < 50 nM in the assay on OCI-Ly10 cells.

Turning to `C=CC(=O)N1CCC(c2nc(-c3ccc(C(=O)Nc4ccccn4)cc3)n3c(N)ncnc23)C1` (centres unmarked) [C197, 4-(8-(1-acryloylpyrrolidin-3-yl)-4-amino-imidazo[1,5-a][1,3,5]triazin-6-yl)-N-(pyridin-2-yl)benzamide], at BTK, the inhibition at 0.1 µM was > 50% and the IC50 was < 100 nM. Further, in the assay on OCI-Ly10 cells, the IC50 is < 50 nM.
